Experimental data: ChEMBL document CHEMBL4312009, “Multigram scale synthesis of polycyclic lactones and evaluation of antitumor and other biological properties” (Eur J Med Chem, 2020)

The compounds below were run on GTPase KRas (Homo sapiens), P01116 [UNDEFINED MUTATION] (assay: Inhibition of KRas mutant in human HCT116 cells assessed as cell viability by measuring ATP at 0.2 uM relative to control). Settings: not given.
Format: cell-based

GTPase KRas (Homo sapiens), P01116 [UNDEFINED MUTATION], sequence (P01116 whole entry, looked up, change not shown): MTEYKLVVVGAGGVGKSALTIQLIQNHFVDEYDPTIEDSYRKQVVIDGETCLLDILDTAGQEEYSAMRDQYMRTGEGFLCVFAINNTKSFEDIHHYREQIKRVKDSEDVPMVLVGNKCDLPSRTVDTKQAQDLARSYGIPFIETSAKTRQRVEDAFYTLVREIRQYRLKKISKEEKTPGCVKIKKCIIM

SMILES | inhibition
Cc1c2c(c(CCCCBr)c3c1C(=O)OC3)Oc1ccccc1O2 | 2%
CCCCCc1c2c(c(C)c3c1Oc1ccccc1O3)C(=O)OC2 | -9%
CCCCCCc1c2c(c(C)c3c1Oc1ccccc1O3)C(=O)SC2 | -10%
CCCCCCc1c2c(c(C)c3c1Oc1ccccc1O3)C(=O)OC2 | -3%
CCCCc1c2c(c(C)c3c1Oc1ccccc1O3)C(=O)OC2 | 39%

The compounds below were run on GTPase KRas (Homo sapiens), P01116 [UNDEFINED MUTATION] (assay: Inhibition of KRas mutant in human HCT116 cells assessed as cell viability by measuring ATP at 2 uM relative to control). Settings: not given.
Format: cell-based

SMILES | inhibition
Cc1c2c(c(CCCCBr)c3c1C(=O)OC3)Oc1ccccc1O2 | 9.5%
CCCCCc1c2c(c(C)c3c1Oc1ccccc1O3)C(=O)OC2 | 12%
CCCCCCc1c2c(c(C)c3c1Oc1ccccc1O3)C(=O)SC2 | 2.9%
CCCCCCc1c2c(c(C)c3c1Oc1ccccc1O3)C(=O)OC2 | 7%
CCCCc1c2c(c(C)c3c1Oc1ccccc1O3)C(=O)OC2 | 7%

Each compound was assayed on GTPase KRas (Homo sapiens), P01116 [UNDEFINED MUTATION] (assay: Inhibition of KRas mutant in human DLD1 cells assessed as cell viability by measuring ATP at 2 uM relative to control). Settings: not given.
Format: cell-based

SMILES | inhibition
Cc1c2c(c(CCCCBr)c3c1C(=O)OC3)Oc1ccccc1O2 | 0.4%
CCCCCc1c2c(c(C)c3c1Oc1ccccc1O3)C(=O)OC2 | 17%
CCCCCCc1c2c(c(C)c3c1Oc1ccccc1O3)C(=O)SC2 | 6%
CCCCCCc1c2c(c(C)c3c1Oc1ccccc1O3)C(=O)OC2 | 49%
CCCCc1c2c(c(C)c3c1Oc1ccccc1O3)C(=O)OC2 | 6%

These compounds were tested against Sodium channel protein type 9 subunit alpha (Homo sapiens) (UniProt Q15858) (assay: Inhibition of human Nav1.7 at 40 uM relative to control). Settings: not given.
Sodium channel protein type 9 subunit alpha (Homo sapiens), sequence (Q15858 whole entry, looked up): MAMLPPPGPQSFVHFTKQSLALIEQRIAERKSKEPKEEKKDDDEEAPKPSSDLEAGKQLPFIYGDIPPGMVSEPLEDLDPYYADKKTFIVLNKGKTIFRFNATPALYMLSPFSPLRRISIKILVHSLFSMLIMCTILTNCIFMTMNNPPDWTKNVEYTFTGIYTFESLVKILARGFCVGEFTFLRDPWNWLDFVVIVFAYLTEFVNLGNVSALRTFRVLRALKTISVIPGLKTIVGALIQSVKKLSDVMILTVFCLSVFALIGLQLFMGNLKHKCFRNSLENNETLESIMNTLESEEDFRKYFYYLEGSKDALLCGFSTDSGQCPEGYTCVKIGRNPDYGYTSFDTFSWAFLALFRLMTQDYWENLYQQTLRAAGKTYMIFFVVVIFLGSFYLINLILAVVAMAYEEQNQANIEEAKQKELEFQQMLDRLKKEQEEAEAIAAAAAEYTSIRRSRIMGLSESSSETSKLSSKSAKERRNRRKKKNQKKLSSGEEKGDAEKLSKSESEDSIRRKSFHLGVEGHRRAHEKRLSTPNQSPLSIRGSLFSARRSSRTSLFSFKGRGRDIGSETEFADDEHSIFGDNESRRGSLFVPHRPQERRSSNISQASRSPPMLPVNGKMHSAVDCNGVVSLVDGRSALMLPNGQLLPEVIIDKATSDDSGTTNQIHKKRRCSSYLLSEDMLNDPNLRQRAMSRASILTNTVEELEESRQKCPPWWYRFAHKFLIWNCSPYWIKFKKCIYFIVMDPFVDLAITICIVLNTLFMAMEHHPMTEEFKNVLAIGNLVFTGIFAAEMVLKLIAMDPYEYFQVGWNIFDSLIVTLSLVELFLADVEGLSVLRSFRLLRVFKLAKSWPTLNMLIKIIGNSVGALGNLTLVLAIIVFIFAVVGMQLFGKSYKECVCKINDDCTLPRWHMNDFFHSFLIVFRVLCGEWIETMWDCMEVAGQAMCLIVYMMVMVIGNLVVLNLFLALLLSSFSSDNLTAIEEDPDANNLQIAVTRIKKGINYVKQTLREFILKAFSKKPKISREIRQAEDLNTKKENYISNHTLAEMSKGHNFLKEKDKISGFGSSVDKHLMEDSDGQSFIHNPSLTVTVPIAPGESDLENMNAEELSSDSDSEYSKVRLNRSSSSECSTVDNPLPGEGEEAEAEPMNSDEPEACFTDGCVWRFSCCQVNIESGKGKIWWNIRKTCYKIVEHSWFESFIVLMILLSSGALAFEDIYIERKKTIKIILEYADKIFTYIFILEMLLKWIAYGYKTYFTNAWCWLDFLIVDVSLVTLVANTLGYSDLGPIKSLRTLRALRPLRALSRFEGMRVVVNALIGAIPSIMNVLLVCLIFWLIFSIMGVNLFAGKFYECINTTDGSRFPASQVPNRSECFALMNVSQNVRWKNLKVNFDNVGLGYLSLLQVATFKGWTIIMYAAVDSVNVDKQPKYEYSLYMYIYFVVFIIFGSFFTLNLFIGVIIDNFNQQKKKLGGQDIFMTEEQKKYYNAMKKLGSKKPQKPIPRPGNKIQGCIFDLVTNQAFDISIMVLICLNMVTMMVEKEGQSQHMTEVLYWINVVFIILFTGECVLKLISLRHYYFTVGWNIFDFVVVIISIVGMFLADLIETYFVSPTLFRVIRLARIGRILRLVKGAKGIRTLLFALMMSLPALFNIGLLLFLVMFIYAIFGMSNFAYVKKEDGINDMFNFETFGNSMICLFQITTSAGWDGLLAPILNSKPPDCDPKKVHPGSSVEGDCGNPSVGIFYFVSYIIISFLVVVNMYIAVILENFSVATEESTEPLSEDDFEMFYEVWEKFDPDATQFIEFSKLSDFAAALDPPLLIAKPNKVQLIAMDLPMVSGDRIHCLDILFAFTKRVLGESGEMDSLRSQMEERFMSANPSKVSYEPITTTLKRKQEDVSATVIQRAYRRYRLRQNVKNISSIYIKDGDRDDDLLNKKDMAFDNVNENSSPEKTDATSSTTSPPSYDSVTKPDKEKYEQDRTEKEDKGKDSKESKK

SMILES | inhibition
CCCCCCc1c2c(c(C)c3c1Oc1ccccc1O3)C(=O)SC2 | -2%
CCCCCCc1c2c(c(C)c3c1Oc1ccccc1O3)C(=O)OC2 | -9%

The compounds below were run on HT-29 (assay: Antiproliferative activity against human HT-29 cells assessed as reduction in cell viability incubated for 24 hrs by MTT assay). Settings: HT-29, 24 h.
Format: functional, cell-based

SMILES | IC50
CCc1c2c(nc3ccc(OC(=O)N4CCC(N5CCCCC5)CC4)cc13)-c1cc3c(c(=O)n1C2)COC(=O)[C@]3(O)CC [IRINOTECAN] | 3.96 µM

Each compound was assayed on GTPase KRas (Homo sapiens), P01116 [UNDEFINED MUTATION] (assay: Inhibition of KRas mutant in human SW480 cells assessed as cell viability by measuring ATP at 20 uM relative to control). Settings: not given.
Format: cell-based

SMILES | inhibition
Cc1c2c(c(CCCCBr)c3c1C(=O)OC3)Oc1ccccc1O2 | 55%
CCCCCc1c2c(c(C)c3c1Oc1ccccc1O3)C(=O)OC2 | 40%
CCCCCCc1c2c(c(C)c3c1Oc1ccccc1O3)C(=O)SC2 | 21%
CCCCCCc1c2c(c(C)c3c1Oc1ccccc1O3)C(=O)OC2 | 12%
CCCCc1c2c(c(C)c3c1Oc1ccccc1O3)C(=O)OC2 | 14%

The compounds below were run on HT-29 (assay: Antiproliferative activity against human HT-29 cells assessed as reduction in cell viability incubated for 24 hrs in hypoxia condition by MTT assay). Settings: HT-29, 24 h.
Format: functional, cell-based

SMILES | IC50
CCc1c2c(nc3ccc(OC(=O)N4CCC(N5CCCCC5)CC4)cc13)-c1cc3c(c(=O)n1C2)COC(=O)[C@]3(O)CC [IRINOTECAN] | 3.55 µM

Each compound was assayed on CYP1A1 (assay: Selectivity index, ratio of IC50 of cytotoxicity against CHO cells to IC50 for bioactivation in CYP1A1 (unknown origin) transfected CHO cells assessed as CYP1A1-mediated drug activation by measuring reduction in cell viability). Settings: hamster, CHO cells and CYP1A1-transfected CHO cells; read-out: Ratio IC50.
Format: cell-based

SMILES | selectivity ratio
Cc1c2ccncc2c(C)c2c1[nH]c1ccccc12 [ELLIPTECINE] | 15.6

Each compound was assayed on GTPase KRas (Homo sapiens), P01116 [UNDEFINED MUTATION] (assay: Inhibition of KRas mutant in human DLD1 cells assessed as cell viability by measuring ATP at 0.2 uM relative to control). Settings: not given.
Format: cell-based

SMILES | inhibition
Cc1c2c(c(CCCCBr)c3c1C(=O)OC3)Oc1ccccc1O2 | 0.4%
CCCCCCc1c2c(c(C)c3c1Oc1ccccc1O3)C(=O)SC2 | -10%
CCCCCCc1c2c(c(C)c3c1Oc1ccccc1O3)C(=O)OC2 | 29%

What follows are compounds tested on GTPase KRas (Homo sapiens), P01116 [UNDEFINED MUTATION] (assay: Inhibition of KRas mutant in human SW480 cells assessed as cell viability by measuring ATP at 0.2 uM relative to control). Settings: not given.
Format: cell-based

SMILES | inhibition
CCCCCc1c2c(c(C)c3c1Oc1ccccc1O3)C(=O)OC2 | 11%
CCCCCCc1c2c(c(C)c3c1Oc1ccccc1O3)C(=O)SC2 | 10%
CCCCCCc1c2c(c(C)c3c1Oc1ccccc1O3)C(=O)OC2 | 16%
CCCCc1c2c(c(C)c3c1Oc1ccccc1O3)C(=O)OC2 | 12%

These compounds were tested against Microtubule-associated protein tau (Homo sapiens) (UniProt P10636) (assay: Inhibition of human Tau at 40 uM relative to control). Settings: not given.
Microtubule-associated protein tau (Homo sapiens), sequence (P10636 whole entry): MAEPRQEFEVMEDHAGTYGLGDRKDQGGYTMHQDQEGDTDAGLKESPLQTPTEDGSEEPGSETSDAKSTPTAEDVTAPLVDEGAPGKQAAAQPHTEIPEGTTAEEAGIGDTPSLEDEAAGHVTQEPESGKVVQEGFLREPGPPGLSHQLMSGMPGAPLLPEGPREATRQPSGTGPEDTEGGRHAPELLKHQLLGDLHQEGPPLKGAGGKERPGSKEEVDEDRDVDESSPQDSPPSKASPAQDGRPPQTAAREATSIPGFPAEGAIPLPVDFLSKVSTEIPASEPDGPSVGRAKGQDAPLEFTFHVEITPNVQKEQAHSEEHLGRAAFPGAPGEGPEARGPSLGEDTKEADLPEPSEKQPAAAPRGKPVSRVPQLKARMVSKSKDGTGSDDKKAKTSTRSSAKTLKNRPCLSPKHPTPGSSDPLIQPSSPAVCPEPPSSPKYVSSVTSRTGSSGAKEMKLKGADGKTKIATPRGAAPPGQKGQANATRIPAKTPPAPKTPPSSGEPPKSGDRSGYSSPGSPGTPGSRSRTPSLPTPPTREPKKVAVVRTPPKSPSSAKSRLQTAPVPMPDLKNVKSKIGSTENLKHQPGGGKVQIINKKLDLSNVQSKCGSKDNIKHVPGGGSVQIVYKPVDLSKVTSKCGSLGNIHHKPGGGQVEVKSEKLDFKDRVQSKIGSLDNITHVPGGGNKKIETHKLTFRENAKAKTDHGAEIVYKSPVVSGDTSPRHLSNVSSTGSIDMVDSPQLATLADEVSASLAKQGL

SMILES | inhibition
Cc1c2c(c(CCCCBr)c3c1C(=O)OC3)Oc1ccccc1O2 | 35%
CCCCCCc1c2c(c(C)c3c1Oc1ccccc1O3)C(=O)SC2 | 30%
CCCCCCc1c2c(c(C)c3c1Oc1ccccc1O3)C(=O)OC2 | 11%
CCCCc1c2c(c(C)c3c1Oc1ccccc1O3)C(=O)OC2 | 8%

Each compound was assayed against Apolipoprotein C-III (Homo sapiens) (UniProt P02656) (assay: Inhibition of human APOC3 at 40 uM relative to control). Settings: not given.
Apolipoprotein C-III (Homo sapiens), sequence (P02656 whole entry): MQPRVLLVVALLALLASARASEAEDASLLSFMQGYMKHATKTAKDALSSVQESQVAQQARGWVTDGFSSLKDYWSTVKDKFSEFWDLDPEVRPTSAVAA

SMILES | inhibition
Cc1c2c(c(CCCCBr)c3c1C(=O)OC3)Oc1ccccc1O2 | 17%
CCCCCCc1c2c(c(C)c3c1Oc1ccccc1O3)C(=O)SC2 | 7%
CCCCCCc1c2c(c(C)c3c1Oc1ccccc1O3)C(=O)OC2 | 17%
CCCCc1c2c(c(C)c3c1Oc1ccccc1O3)C(=O)OC2 | 34%

These compounds were tested against Proprotein convertase subtilisin/kexin type 9 (Homo sapiens) (UniProt Q8NBP7) (assay: Inhibition of human PCSK9 at 40 uM relative to control). Settings: not given.
Proprotein convertase subtilisin/kexin type 9 (Homo sapiens), sequence (Q8NBP7 31-152 limits assumed): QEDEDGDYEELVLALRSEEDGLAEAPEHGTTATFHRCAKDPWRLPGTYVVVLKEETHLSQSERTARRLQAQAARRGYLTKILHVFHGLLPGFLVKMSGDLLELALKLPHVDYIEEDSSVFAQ
Proprotein convertase subtilisin/kexin type 9 (Homo sapiens), sequence (Q8NBP7 153-692 limits assumed): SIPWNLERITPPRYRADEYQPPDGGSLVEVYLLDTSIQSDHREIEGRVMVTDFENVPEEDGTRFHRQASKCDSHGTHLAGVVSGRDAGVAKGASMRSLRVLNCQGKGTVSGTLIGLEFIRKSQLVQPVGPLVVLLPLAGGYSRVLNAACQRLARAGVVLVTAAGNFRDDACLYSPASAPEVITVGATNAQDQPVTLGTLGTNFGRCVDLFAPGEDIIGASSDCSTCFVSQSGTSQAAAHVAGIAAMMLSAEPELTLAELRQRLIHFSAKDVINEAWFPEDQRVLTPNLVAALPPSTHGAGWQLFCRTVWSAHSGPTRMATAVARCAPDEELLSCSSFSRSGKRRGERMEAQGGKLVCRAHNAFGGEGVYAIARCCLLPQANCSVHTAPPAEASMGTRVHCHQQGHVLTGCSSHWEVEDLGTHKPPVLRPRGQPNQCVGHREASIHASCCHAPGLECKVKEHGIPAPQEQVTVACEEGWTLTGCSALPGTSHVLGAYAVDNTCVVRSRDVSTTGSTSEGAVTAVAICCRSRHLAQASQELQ

SMILES | inhibition
Cc1c2c(c(CCCCBr)c3c1C(=O)OC3)Oc1ccccc1O2 | 40%
CCCCCCc1c2c(c(C)c3c1Oc1ccccc1O3)C(=O)SC2 | -4%
CCCCCCc1c2c(c(C)c3c1Oc1ccccc1O3)C(=O)OC2 | -7%
CCCCc1c2c(c(C)c3c1Oc1ccccc1O3)C(=O)OC2 | 15%

Each compound was assayed on GTPase KRas (Homo sapiens), P01116 [UNDEFINED MUTATION] (assay: Inhibition of KRas mutant in human DLD1 cells assessed as cell viability by measuring ATP at 20 uM relative to control). Settings: not given.
Format: cell-based

SMILES | inhibition
Cc1c2c(c(CCCCBr)c3c1C(=O)OC3)Oc1ccccc1O2 | 20%
CCCCCc1c2c(c(C)c3c1Oc1ccccc1O3)C(=O)OC2 | 40%
CCCCCCc1c2c(c(C)c3c1Oc1ccccc1O3)C(=O)SC2 | 14%
CCCCc1c2c(c(C)c3c1Oc1ccccc1O3)C(=O)OC2 | 41%

The compounds below were run on GTPase KRas (Homo sapiens), P01116 [UNDEFINED MUTATION] (assay: Inhibition of KRas mutant in human HCT116 cells […] assessed as cell viability by measuring ATP at 2 uM relative to control). Settings: not given.
Format: cell-based

SMILES | inhibition
Cc1c2c(c(CCCCBr)c3c1C(=O)OC3)Oc1ccccc1O2 | 20%
CCCCCc1c2c(c(C)c3c1Oc1ccccc1O3)C(=O)OC2 | 28%
CCCCCCc1c2c(c(C)c3c1Oc1ccccc1O3)C(=O)SC2 | -5.6%
CCCCCCc1c2c(c(C)c3c1Oc1ccccc1O3)C(=O)OC2 | 10%
CCCCc1c2c(c(C)c3c1Oc1ccccc1O3)C(=O)OC2 | 0.4%

The compounds below were run on GTPase KRas (Homo sapiens), P01116 [UNDEFINED MUTATION] (assay: Inhibition of KRas mutant in human HCT116 cells […] assessed as cell viability by measuring ATP at 20 uM relative to control). Settings: not given.
Format: cell-based

SMILES | inhibition
Cc1c2c(c(CCCCBr)c3c1C(=O)OC3)Oc1ccccc1O2 | 28%
CCCCCc1c2c(c(C)c3c1Oc1ccccc1O3)C(=O)OC2 | 31%
CCCCCCc1c2c(c(C)c3c1Oc1ccccc1O3)C(=O)SC2 | 3.4%
CCCCCCc1c2c(c(C)c3c1Oc1ccccc1O3)C(=O)OC2 | 2%
CCCCc1c2c(c(C)c3c1Oc1ccccc1O3)C(=O)OC2 | 2%

Each compound was assayed on GTPase KRas (Homo sapiens), P01116 [UNDEFINED MUTATION] (assay: Inhibition of KRas mutant in human SW480 cells assessed as cell viability by measuring ATP at 2 uM relative to control). Settings: not given.
Format: cell-based

SMILES | inhibition
Cc1c2c(c(CCCCBr)c3c1C(=O)OC3)Oc1ccccc1O2 | 4.4%
CCCCCc1c2c(c(C)c3c1Oc1ccccc1O3)C(=O)OC2 | 21%
CCCCCCc1c2c(c(C)c3c1Oc1ccccc1O3)C(=O)SC2 | 10%
CCCCCCc1c2c(c(C)c3c1Oc1ccccc1O3)C(=O)OC2 | 18%
CCCCc1c2c(c(C)c3c1Oc1ccccc1O3)C(=O)OC2 | 14%

What follows are compounds tested on GTPase KRas (Homo sapiens), P01116 [UNDEFINED MUTATION] (assay: Inhibition of KRas mutant in human HCT116 cells assessed as cell viability by measuring ATP at 20 uM relative to control). Settings: not given.
Format: cell-based

SMILES | inhibition
Cc1c2c(c(CCCCBr)c3c1C(=O)OC3)Oc1ccccc1O2 | 108%
CCCCCc1c2c(c(C)c3c1Oc1ccccc1O3)C(=O)OC2 | 35%
CCCCCCc1c2c(c(C)c3c1Oc1ccccc1O3)C(=O)SC2 | 13%
CCCCCCc1c2c(c(C)c3c1Oc1ccccc1O3)C(=O)OC2 | 15%
CCCCc1c2c(c(C)c3c1Oc1ccccc1O3)C(=O)OC2 | 38%

What follows are compounds tested on GTPase KRas (Homo sapiens), P01116 [UNDEFINED MUTATION] (assay: Inhibition of KRas mutant in human HCT116 cells […] assessed as cell viability by measuring ATP at 0.2 uM relative to control). Settings: not given.
Format: cell-based

SMILES | inhibition
Cc1c2c(c(CCCCBr)c3c1C(=O)OC3)Oc1ccccc1O2 | 12%
CCCCCc1c2c(c(C)c3c1Oc1ccccc1O3)C(=O)OC2 | 44%
CCCCCCc1c2c(c(C)c3c1Oc1ccccc1O3)C(=O)OC2 | 26%

Each compound was assayed on CHO (assay: Cytotoxicity against CHO cells assessed as reduction in cell viability). Settings: Cricetulus griseus.
Format: cell-based

SMILES | IC50
Cc1c2ccncc2c(C)c2c1[nH]c1ccccc12 [ELLIPTECINE] | 0.02 µM

Each compound was assayed against T1, Angiopoietin-like protein 8 (Homo sapiens) (UniProt Q6UXH0) (assay: Inhibition of human Angptl8 at 40 uM relative to control). Settings: not given.
T1 sequence (whole entry): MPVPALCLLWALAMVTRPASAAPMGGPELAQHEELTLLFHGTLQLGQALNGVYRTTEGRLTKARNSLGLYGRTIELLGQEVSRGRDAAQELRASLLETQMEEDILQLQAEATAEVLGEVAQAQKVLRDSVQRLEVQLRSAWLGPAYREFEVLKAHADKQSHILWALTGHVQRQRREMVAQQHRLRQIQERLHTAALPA

SMILES | inhibition
Cc1c2c(c(CCCCBr)c3c1C(=O)OC3)Oc1ccccc1O2 | 37%
CCCCCCc1c2c(c(C)c3c1Oc1ccccc1O3)C(=O)SC2 | 27%
CCCCCCc1c2c(c(C)c3c1Oc1ccccc1O3)C(=O)OC2 | 24%
CCCCc1c2c(c(C)c3c1Oc1ccccc1O3)C(=O)OC2 | 15%

The compounds below were run on HT-29 (assay: Selectivity index, ratio of IC50 of antiproliferative activity against human HT-29 cells in normoxia to IC50 of antiproliferative activity against human HT-29 cells in hypoxia condition). Settings: not given.
Format: functional

SMILES | Ratio IC50
CCc1c2c(nc3ccc(OC(=O)N4CCC(N5CCCCC5)CC4)cc13)-c1cc3c(c(=O)n1C2)COC(=O)[C@]3(O)CC [IRINOTECAN] | 1.12
